Laboratory results from patent publication US8802597B2, “Herbicidal pyrimidines” (E I du Pont de Nemours and Company, priority 2003, dated 2014).
Read-outs that look alike come from different tables or passages of the source.

Key:
Experiment in all cases: Test A pre/postemergence
Assay type in all cases: in vivo
[1] = test system: giant foxtail (Setaria faberi); conditions: for pest or weed control at 125 g/ha / pest or weed control at 500 g/ha: Setaria faberi, 240 h, read-out: Plant response rating, Foxtail, Giant
How it was run: (§1)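 Pre/post greenhouse screen; loam/sand soil; solvent + surfactant formulation; pre = directed soil spray at planting, post = 1–2 leaf plants, 2–10 cm; ~10 d; visual 0–100 rating vs untreated.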

[2] = test system: crabgrass (Digitaria sanguinalis); conditions: for pest or weed control at 125 g/ha / pest or weed control at 500 g/ha: Digitaria sanguinalis, 240 h, read-out: Plant response rating, Crabgrass
How it was run: as §1

[3] = test system: barnyardgrass (Echinochloa crus-galli); conditions: for pest or weed control at 125 g/ha / pest or weed control at 500 g/ha: Echinochloa crus-galli, 240 h, read-out: Plant response rating, Barnyardgrass
How it was run: as §1

[4] = test system: redroot pigweed (Amaranthus retroflexus); conditions: for pest or weed control at 125 g/ha / pest or weed control at 500 g/ha: Amaranthus retroflexus, 240 h, read-out: Plant response rating, Pigweed
How it was run: as §1

[5] = test system: velvetleaf (Abutilon theophrasti); conditions: for pest or weed control at 125 g/ha / pest or weed control at 500 g/ha: Abutilon theophrasti, 240 h, read-out: Plant response rating, Velvetleaf
How it was run: as §1

[6] = test system: morningglory (Ipomoea spp.); conditions: for pest or weed control at 125 g/ha / pest or weed control at 500 g/ha: Ipomoea, 240 h, read-out: Plant response rating, Morningglory
How it was run: as §1

[7] = Postemergence, 125 g ai/ha, 0 to 100 scale (0 no effect, 100 complete control)
[8] = Postemergence, 500 g ai/ha, 0 to 100 scale (0 no effect, 100 complete control)
[9] = Preemergence, 125 g ai/ha, 0 to 100 scale where 0 is no effect and 100 is complete control, approximately ten days
[10] = Preemergence, 500 g ai/ha, 0 to 100 scale where 0 is no effect and 100 is complete control, approximately ten days
[11] = post-emergence, Postemergence, 125 g ai/ha, 0 to 100 scale (0 no effect, 100 complete control)
[12] = post-emergence, Postemergence, 500 g ai/ha, 0 to 100 scale (0 no effect, 100 complete control)
[13] = pre-emergence, Preemergence, 125 g ai/ha, 0 to 100 scale where 0 is no effect and 100 is complete control, approximately ten days
[14] = pre-emergence, Preemergence, 500 g ai/ha, 0 to 100 scale where 0 is no effect and 100 is complete control, approximately ten days

COC(=O)c1nc(-c2ccc(I)cc2)nc(N)c1Br [Compound 128]
Plant response rating, Foxtail, Giant [1, 7]: 0
Plant response rating, Foxtail, Giant [1, 8]: 0
Plant response rating, Foxtail, Giant [1, 9]: 0
Plant response rating, Foxtail, Giant [1, 10]: 0
Plant response rating, Crabgrass [2, 7]: 0
Plant response rating, Crabgrass [2, 8]: 0
Plant response rating, Crabgrass [2, 9]: 0
Plant response rating, Crabgrass [2, 10]: 0
Plant response rating, Barnyardgrass [3, 7]: 0
Plant response rating, Barnyardgrass [3, 8]: 0
Plant response rating, Barnyardgrass [3, 9]: 0
Plant response rating, Barnyardgrass [3, 10]: 0
Plant response rating, Pigweed [4, 7]: 55
Plant response rating, Pigweed [4, 8]: 75
Plant response rating, Pigweed [4, 9]: 0
Plant response rating, Pigweed [4, 10]: 0
Plant response rating, Velvetleaf [5, 7]: 65
Plant response rating, Velvetleaf [5, 8]: 80
Plant response rating, Velvetleaf [5, 9]: 0
Plant response rating, Velvetleaf [5, 10]: 0
Plant response rating, Morningglory [6, 7]: 55
Plant response rating, Morningglory [6, 8]: 80
Plant response rating, Morningglory [6, 9]: 0
Plant response rating, Morningglory [6, 10]: 0

COC(=O)c1nc(-c2ccc(Br)cc2)nc(N)c1Br [Compound 129]
Plant response rating, Foxtail, Giant [1, 7]: 0
Plant response rating, Foxtail, Giant [1, 8]: 0
Plant response rating, Foxtail, Giant [1, 9]: 0
Plant response rating, Foxtail, Giant [1, 10]: 0
Plant response rating, Crabgrass [2, 7]: 0
Plant response rating, Crabgrass [2, 8]: 0
Plant response rating, Crabgrass [2, 9]: 0
Plant response rating, Crabgrass [2, 10]: 0
Plant response rating, Barnyardgrass [3, 7]: 0
Plant response rating, Barnyardgrass [3, 8]: 0
Plant response rating, Barnyardgrass [3, 9]: 0
Plant response rating, Barnyardgrass [3, 10]: 0
Plant response rating, Pigweed [4, 7]: 80
Plant response rating, Pigweed [4, 8]: 85
Plant response rating, Pigweed [4, 9]: 0
Plant response rating, Pigweed [4, 10]: 15
Plant response rating, Velvetleaf [5, 7]: 80
Plant response rating, Velvetleaf [5, 8]: 90
Plant response rating, Velvetleaf [5, 9]: 0
Plant response rating, Velvetleaf [5, 10]: 5
Plant response rating, Morningglory [6, 7]: 60
Plant response rating, Morningglory [6, 8]: 70
Plant response rating, Morningglory [6, 9]: 0
Plant response rating, Morningglory [6, 10]: 0

Nc1nc(C2CC2)nc(C(=O)[O-])c1Br.[Na+] [Compound 113, 6-amino-5-bromo-2-cyclopropyl-4-pyrimidinecarboxylic acid monosodium salt]
pest or weed control at 125 g/ha [1, 11]: 65%
pest or weed control at 500 g/ha [1, 12]: 85%
pest or weed control at 125 g/ha [1, 13]: 15%
pest or weed control at 500 g/ha [1, 14]: 80%
pest or weed control at 125 g/ha [2, 11]: 25%
pest or weed control at 500 g/ha [2, 12]: 55%
pest or weed control at 125 g/ha [2, 13]: 15%
pest or weed control at 500 g/ha [2, 14]: 70%
pest or weed control at 125 g/ha [3, 11]: 55%
pest or weed control at 500 g/ha [3, 12]: 90%
pest or weed control at 125 g/ha [3, 13]: 25%
pest or weed control at 500 g/ha [3, 14]: 80%
pest or weed control at 125 g/ha [4, 11]: 80%
pest or weed control at 500 g/ha [4, 12]: 90%
pest or weed control at 125 g/ha [4, 13]: 80%
pest or weed control at 500 g/ha [4, 14]: 90%
pest or weed control at 125 g/ha [5, 11]: 80%
pest or weed control at 500 g/ha [5, 12]: 95%
pest or weed control at 125 g/ha [5, 13]: 65%
pest or weed control at 500 g/ha [5, 14]: 95%
pest or weed control at 125 g/ha [6, 11]: 90%
pest or weed control at 500 g/ha [6, 12]: 90%
pest or weed control at 125 g/ha [6, 13]: 90%
pest or weed control at 500 g/ha [6, 14]: 100%

Cc1ccc(-c2nc(N)c(Cl)c(C(=O)O)n2)cc1 [Compound 91]
Plant response rating, Foxtail, Giant [1, 7]: 5
Plant response rating, Foxtail, Giant [1, 8]: 75
Plant response rating, Foxtail, Giant [1, 9]: 0
Plant response rating, Foxtail, Giant [1, 10]: 25
Plant response rating, Crabgrass [2, 7]: 5
Plant response rating, Crabgrass [2, 8]: 15
Plant response rating, Crabgrass [2, 9]: 25
Plant response rating, Crabgrass [2, 10]: 75
Plant response rating, Barnyardgrass [3, 7]: 75
Plant response rating, Barnyardgrass [3, 8]: 90
Plant response rating, Barnyardgrass [3, 9]: 5
Plant response rating, Barnyardgrass [3, 10]: 80
Plant response rating, Pigweed [4, 7]: 55
Plant response rating, Pigweed [4, 8]: 100
Plant response rating, Pigweed [4, 9]: 100
Plant response rating, Pigweed [4, 10]: 100
Plant response rating, Velvetleaf [5, 7]: 75
Plant response rating, Velvetleaf [5, 8]: 95
Plant response rating, Velvetleaf [5, 9]: 80
Plant response rating, Velvetleaf [5, 10]: 100
Plant response rating, Morningglory [6, 7]: 5
Plant response rating, Morningglory [6, 8]: 30
Plant response rating, Morningglory [6, 9]: 5
Plant response rating, Morningglory [6, 10]: 50
